The test system of series [1] is RSV. Nature of the series: Cell-based anti-RSV potency in BEAS2B cells. The settings on record: human respiratory syncytial virus, BEAS-2B. The text has this:
(§1) For initial potency assessment, recombinant RSV reporter viruses can be employed to determine dose-response curves. These tests can be run routinely in an automated format, simultaneously assessing 8-fold serial compound dilutions in 3 independent replicates. Active concentrations can be calculated by four-parameter variable slope regression modeling. Individual prodrug candidates failing this assay can be tested for membrane permeability using a Caco-2 cell assay. Resistance-validated Caco-2 monolayers (TEER value >0.5×103Ω) will receive compound from the apical side, followed by LC-MS/MS-based quantification of substance intracellularly and in both chambers after 2-hour incubation. Atenolol, propranolol, and talinolol can be included as references and permeability coefficients (Papp) calculated. Candidates with poor Papp values can be reformulated synthetically. In parallel, all candidates can be subjected to rapid cytotoxicity screening, relying on PrestoBlue to monitor the redox potential of living cells after 48-hour exposure to a concentration range of compound. A validated automated cytotoxicity test pipeline has been established and can calculate CC50 values through variable slope regression modeling.

Series [2] is described as follows: Cytotoxicity in BEAS2B cells. The settings on record: human, read-out: CC50 BEAS2B cells RSV. In kind it is cell-based.
Excerpt: as §1

Series [3] deals with RSV N protein (N-P interaction) (Human respiratory syncytial virus A (strain A2), UniProt P03418). Put plainly: FP assay: competition with 5-FAM-Ppep for purified RSV N. In kind it is binding. The note with it: for Ki: FP assay, purified RSV N vs 5-FAM-Ppep.
Series [4] concerns RSV. Nature of the series: Cell-based anti-RSV potency in HEp2 cells. The settings on record: human respiratory syncytial virus, HEp-2.
Excerpt: as §1

A short description of series [5]: Cytotoxicity in HEp2 cells. In kind it is cell-based. The settings on record: human, read-out: CC50 HEp2 cells RSV.
Excerpt: as §1

The target of series [6] is RSV N-P interaction (Human respiratory syncytial virus A (strain A2), UniProt P03418). Put plainly: Biolayer interferometry (BLI) competition assay, purified N to P protein biosensors. In kind it is binding. The settings on record: PBS+BSA 0.01% +Tween20 0.002%. The text has this:
Dissociation rates of purified N to P protein biosensors determined in presence of GRP-171194 under stringent conditions (PBS+BSA 0.01% +Tween20 0.002%).
On the technique in general: Biolayer interferometry detects binding as a change in optical thickness at a sensor tip.

Chain of RSV N protein (N-P interaction) (P03418 whole entry): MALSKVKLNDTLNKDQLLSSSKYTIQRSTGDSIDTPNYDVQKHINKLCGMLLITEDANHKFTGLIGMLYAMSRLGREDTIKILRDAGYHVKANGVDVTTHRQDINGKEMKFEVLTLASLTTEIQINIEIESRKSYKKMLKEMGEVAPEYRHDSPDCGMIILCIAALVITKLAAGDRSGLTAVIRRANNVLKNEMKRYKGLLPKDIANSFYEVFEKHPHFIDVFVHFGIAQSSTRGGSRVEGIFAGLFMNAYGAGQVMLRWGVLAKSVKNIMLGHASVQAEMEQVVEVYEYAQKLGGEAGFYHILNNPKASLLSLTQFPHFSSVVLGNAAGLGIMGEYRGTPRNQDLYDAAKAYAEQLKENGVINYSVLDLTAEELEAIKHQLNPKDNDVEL
Chain of RSV N-P interaction (P03418 whole entry): as above

For `CN(C)C(=O)C1=CC(c2ccccc2Cl)n2nnnc2N1` (centres unmarked) [EJ3054], in series [1], the 50% inhibitory concentration (IC50) (in general, the concentration needed to halve the response being measured) is 100 µM. In series [2], the cytotoxic concentration (CC50) (in general, the concentration at which the toxic effect on the cells reaches its halfway point) at 48 h came out at 131 µM. The inhibition constant Ki (usually a measure of affinity in units of concentration, obtained from inhibition or displacement) in series [3] was more than 300 µM.
Take `COC(=O)Nc1ccc2c(C)c(Cl)c(=O)oc2c1` [EJ3066]: the results for the IC50 in series [4] and in series [1] were more than 100 µM and 130 µM, respectively. In addition, the half-maximal cytotoxic concentration (CC50) at 48 h in series [5] and in series [2] was more than 100 µM in each case. In series [3], the Ki was more than 300 µM.
In series [1], `O=C(OCC(F)(F)F)C1=CC(c2ccccc2Cl)n2nnnc2N1` (centres unmarked) [ZD-3-064] returned an IC50 of more than 300 µM. Further, the CC50 at 48 h in series [2] is more than 300 µM. In addition, the Ki in series [3] was more than 300 µM.
In the case of `Cc1c(Cl)c(=O)oc2cc(OC(=O)C(C)C)ccc12` [ZD-3-067], the half-inhibitory concentration (IC50) was 6.5 µM in series [4] and 136 µM in series [1]. Besides, the cytotoxic concentration (CC50) at 48 h in series [5] turned out to be 7 µM; in series [2] it was 251 µM. The inhibition constant Ki in series [3] stood at 1.6 µM.
On the same counts, the results for `CC(C)COC(=O)C1=CC(c2ccccc2Cl)n2nnnc2N1` (centres unmarked) [EJ3043] are more than 300 µM, more than 300 µM, more than 300 µM, more than 300 µM and more than 300 µM.
In turn, `CNC(=O)C1=CC(c2ccccc2Cl)n2nnnc2N1` (centres unmarked) [EJ3057] displayed an IC50 in series [1] of 112 µM. Also, the cytotoxic concentration (CC50) at 48 h in series [2] was more than 100 µM. In addition, the Ki in series [3] was more than 300 µM.
For the molecule `O=C(O)C1=CC(c2ccccc2Cl)n2nnnc2N1` (centres unmarked) [GRP-171194, 7-(2-chlorophenyl)-4,7-dihydrotetrazolo[1,5-a]pyrimidine-5-carboxylic acid], the concentration for half-maximal inhibition (IC50) in series [4] and in series [1] was more than 300 µM each time. Further, the CC50 at 48 h in series [5] and in series [2] was more than 300 µM in each case. In series [6], the “inhibition of purified N binding to P protein biosensors (BLI)” value is on record as “dose-dependent inhibition”. In addition, the Ki in series [3] was found to be 2.4 µM. Besides, in series [3] (compound 0.31-40 μM, 5-FAM-Ppep 1 μM), the “competition with 5-FAM-Ppep for N in FP assay” value was “dose-dependent competition”.
`Cc1c(Cl)c(=O)oc2cc(OC(C)C)ccc12` [EJ3063]: the IC50 in series [4] amounted to 1.9 µM; in series [1] it was 14.6 µM. The figures for the 50% cytotoxic concentration (CC50) at 48 h in series [5] and in series [2] were 1.2 µM and more than 300 µM, respectively. The same molecule displayed a Ki in series [3] of more than 300 µM.
Turning to `COC(=O)C1=CC(c2ccccc2Cl)n2nnnc2N1` (centres unmarked) [EJ3051], the IC50 in series [1] was 101 µM. The cytotoxic concentration (CC50) at 48 h in series [2] is 102 µM. The Ki in series [3] was more than 300 µM.
`CC(C)OC(=O)C1=CC(c2ccccc2Cl)n2nnnc2N1` (centres unmarked) [ZD-3-069]: the IC50 in series [4] and in series [1] was more than 300 µM throughout. Moreover, the half-maximal cytotoxic concentration (CC50) at 48 h in series [5] and in series [2] was more than 300 µM each time. Further, the Ki in series [3] is more than 300 µM.
In turn, `CC(=O)Oc1ccc2c(C)c(Cl)c(=O)oc2c1` [GRP-268365] returned a Ki in series [3] of 2.2 µM.
In the case of `CC(=O)Oc1ccc2c(C)cc(=O)oc2c1` [EJ21257], the half-maximal inhibitory concentration (IC50) in series [4] and in series [1] was more than 300 µM in each case. Besides, the cytotoxic concentration (CC50) at 48 h in series [5] is more than 100 µM; in series [2] it was 113 µM. In series [3], affinity was put at a Ki of 2.9 µM.
As to `Cc1c(Cl)c(=O)oc2cc(O)ccc12` [AX801], the IC50 in series [1] is 65 µM. In addition, the CC50 at 48 h in series [2] is 116 µM. Further, the Ki in series [3] was more than 300 µM.
As for `CCOC(=O)C1=CC(c2ccccc2Cl)n2nnnc2N1` (centres unmarked) [EJ3062], the concentration for half-maximal inhibition (IC50) in series [4] and in series [1] was more than 300 µM in each case. In addition, the CC50 at 48 h in series [5] and in series [2] was more than 300 µM each time. The Ki in series [3] is more than 300 µM.
On to `O=C(O)C1=CC(c2ccccc2)n2nnnc2N1` (centres unmarked) [RJW-3-024], for which the concentration for half-maximal inhibition (IC50) in series [1] is more than 300 µM. Moreover, the CC50 at 48 h in series [2] is more than 300 µM. For the same molecule, the Ki in series [3] is 10 µM.
For the molecule `COc1ccc2c(C)c(Cl)c(=O)oc2c1` [EJ3061], the inhibition constant (Ki) in series [3] is more than 300 µM.

These data come from patent publication US12016863B2, “Inhibitors of RSV replication and applications thereof” (priority 2018, dated 2024).
